Data: publication doi:10.1101/2023.11.24.568596v1 (biorxiv, 2023)

Legend:
Conditions in all cases: binder
[1] = target: BIKE (Homo sapiens, UniProt Q9NSY1)
[2] = target: T1, DMPK1 (Homo sapiens, UniProt Q09013)
T1 sequence (Q09013 1-629): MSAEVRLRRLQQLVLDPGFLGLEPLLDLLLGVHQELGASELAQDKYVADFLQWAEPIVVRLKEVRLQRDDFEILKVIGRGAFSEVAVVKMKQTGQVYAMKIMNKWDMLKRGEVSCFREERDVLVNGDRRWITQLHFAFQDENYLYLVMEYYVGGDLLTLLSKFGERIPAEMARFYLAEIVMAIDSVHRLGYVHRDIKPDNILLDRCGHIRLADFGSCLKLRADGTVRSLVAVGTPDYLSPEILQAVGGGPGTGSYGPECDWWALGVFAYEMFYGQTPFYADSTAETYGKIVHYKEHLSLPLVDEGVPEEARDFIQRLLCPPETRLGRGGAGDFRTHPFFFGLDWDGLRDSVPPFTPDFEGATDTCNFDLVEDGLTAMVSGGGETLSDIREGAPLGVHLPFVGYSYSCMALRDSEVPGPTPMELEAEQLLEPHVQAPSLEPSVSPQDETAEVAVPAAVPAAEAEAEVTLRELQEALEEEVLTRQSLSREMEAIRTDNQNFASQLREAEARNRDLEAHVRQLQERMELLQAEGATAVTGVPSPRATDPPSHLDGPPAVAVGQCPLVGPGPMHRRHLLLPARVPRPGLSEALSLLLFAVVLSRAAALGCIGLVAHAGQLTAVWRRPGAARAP

[3] = target: CLK3 (Homo sapiens, UniProt P49761)
CLK3, sequence (P49761 whole entry): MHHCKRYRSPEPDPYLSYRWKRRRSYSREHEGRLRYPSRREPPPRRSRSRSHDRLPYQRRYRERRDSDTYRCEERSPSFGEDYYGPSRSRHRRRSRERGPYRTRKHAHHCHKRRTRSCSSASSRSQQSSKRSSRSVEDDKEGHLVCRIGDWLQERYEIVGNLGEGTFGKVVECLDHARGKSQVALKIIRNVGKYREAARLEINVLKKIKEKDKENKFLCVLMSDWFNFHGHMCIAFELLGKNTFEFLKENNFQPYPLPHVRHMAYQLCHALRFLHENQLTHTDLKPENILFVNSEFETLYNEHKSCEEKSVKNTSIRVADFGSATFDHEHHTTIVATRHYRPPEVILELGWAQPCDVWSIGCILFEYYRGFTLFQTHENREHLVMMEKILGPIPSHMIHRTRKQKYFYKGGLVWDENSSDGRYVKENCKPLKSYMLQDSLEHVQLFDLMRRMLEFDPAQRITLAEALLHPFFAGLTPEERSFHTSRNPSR

[4] = target: T2, EphB1 (Homo sapiens, UniProt P54762)
T2 sequence (P54762 1-984): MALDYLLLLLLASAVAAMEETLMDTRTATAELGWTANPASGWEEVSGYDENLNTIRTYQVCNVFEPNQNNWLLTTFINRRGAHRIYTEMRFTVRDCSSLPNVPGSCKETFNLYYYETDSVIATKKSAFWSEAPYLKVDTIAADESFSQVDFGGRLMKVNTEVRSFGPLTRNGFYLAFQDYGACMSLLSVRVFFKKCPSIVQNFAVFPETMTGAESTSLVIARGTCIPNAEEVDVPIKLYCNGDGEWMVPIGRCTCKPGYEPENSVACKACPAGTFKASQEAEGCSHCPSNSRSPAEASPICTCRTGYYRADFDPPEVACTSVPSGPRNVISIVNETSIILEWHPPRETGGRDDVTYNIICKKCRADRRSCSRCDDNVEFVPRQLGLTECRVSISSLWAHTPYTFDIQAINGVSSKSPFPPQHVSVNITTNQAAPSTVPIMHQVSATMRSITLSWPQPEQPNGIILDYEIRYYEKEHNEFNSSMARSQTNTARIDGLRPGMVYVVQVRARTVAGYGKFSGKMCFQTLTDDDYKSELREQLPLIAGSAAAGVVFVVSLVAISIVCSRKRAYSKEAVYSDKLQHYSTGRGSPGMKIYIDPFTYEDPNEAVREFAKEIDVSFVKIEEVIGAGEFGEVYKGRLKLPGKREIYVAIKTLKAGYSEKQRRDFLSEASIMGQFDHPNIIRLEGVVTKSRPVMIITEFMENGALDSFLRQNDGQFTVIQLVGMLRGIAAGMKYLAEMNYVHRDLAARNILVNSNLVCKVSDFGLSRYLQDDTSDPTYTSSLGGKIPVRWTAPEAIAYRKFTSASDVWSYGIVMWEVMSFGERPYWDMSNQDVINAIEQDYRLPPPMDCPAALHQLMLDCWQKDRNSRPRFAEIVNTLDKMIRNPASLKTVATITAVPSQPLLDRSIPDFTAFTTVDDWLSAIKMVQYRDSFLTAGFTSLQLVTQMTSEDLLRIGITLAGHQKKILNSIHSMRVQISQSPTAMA

[5] = target: EphA7 (Homo sapiens, UniProt Q15375)
EphA7, sequence (Q15375 whole entry): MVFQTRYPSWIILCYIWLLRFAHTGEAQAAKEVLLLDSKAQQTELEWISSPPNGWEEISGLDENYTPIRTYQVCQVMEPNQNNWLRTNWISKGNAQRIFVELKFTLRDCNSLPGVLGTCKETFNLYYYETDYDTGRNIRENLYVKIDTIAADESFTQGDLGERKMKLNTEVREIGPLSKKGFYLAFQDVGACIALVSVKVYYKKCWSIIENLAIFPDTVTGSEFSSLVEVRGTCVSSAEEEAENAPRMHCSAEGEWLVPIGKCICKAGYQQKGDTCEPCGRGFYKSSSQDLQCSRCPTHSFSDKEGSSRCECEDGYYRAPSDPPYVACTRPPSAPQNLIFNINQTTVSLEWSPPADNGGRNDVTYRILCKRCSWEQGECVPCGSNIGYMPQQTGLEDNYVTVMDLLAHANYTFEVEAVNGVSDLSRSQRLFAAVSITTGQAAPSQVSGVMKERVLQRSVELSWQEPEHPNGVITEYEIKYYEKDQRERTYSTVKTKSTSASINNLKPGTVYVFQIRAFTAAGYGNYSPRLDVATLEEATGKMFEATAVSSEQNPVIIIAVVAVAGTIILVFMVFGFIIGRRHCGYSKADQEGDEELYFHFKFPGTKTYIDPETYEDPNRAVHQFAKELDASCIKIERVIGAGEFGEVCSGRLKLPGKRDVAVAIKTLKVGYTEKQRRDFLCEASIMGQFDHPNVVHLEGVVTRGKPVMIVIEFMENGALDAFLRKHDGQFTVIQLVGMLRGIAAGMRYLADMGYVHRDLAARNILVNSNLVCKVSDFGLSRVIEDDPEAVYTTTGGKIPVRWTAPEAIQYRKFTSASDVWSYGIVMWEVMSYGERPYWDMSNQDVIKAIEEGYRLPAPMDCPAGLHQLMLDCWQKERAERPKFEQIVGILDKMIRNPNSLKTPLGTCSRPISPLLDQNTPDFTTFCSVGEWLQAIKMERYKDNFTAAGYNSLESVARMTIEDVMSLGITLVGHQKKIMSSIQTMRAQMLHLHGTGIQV

BIKE, sequence (Q9NSY1 whole entry): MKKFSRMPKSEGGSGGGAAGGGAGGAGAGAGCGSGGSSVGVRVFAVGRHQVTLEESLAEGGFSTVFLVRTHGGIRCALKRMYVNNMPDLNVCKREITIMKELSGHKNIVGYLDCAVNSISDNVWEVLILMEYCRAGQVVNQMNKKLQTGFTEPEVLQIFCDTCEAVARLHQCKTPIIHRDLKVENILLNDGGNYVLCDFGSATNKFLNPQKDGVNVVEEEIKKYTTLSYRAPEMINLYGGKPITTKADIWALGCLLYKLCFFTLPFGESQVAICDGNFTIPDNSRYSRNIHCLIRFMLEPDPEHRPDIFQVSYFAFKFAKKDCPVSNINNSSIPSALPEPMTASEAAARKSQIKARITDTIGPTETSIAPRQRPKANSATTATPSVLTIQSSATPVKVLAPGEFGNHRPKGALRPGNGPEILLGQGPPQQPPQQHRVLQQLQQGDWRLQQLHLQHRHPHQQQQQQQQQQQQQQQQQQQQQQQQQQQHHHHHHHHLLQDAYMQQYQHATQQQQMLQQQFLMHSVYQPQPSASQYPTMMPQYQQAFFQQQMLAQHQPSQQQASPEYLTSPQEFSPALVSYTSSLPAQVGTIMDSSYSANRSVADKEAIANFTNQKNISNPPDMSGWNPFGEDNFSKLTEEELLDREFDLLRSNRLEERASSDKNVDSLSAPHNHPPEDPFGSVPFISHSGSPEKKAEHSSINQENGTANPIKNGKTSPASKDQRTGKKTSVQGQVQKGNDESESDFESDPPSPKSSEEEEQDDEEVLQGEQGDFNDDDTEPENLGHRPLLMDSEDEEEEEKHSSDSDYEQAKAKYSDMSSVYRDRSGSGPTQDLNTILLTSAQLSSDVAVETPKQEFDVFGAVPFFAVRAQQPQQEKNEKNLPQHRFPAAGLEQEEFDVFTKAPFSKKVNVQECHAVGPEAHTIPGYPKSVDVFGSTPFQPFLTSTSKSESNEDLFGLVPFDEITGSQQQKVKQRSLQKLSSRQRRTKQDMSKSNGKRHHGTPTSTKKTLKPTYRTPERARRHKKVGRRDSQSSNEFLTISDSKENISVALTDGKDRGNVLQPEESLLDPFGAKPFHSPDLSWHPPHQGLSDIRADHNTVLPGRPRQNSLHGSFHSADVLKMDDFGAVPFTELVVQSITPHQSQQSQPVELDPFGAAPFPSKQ

Cc1cccc(-c2ccc(-c3cc4cnc(NCCCN5CCCC5=O)nc4n(CCCCN)c3=O)c(Cl)c2)n1 [compound 27, MR30]
ΔTm MR30 (27) [1]: 0.4 °C
ΔTm MR30 (27) [2]: -1.4 °C
ΔTm MR30 (27) [3]: -0.3 °C
ΔTm MR30 (27) [4]: 3.0 °C
ΔTm MR30 (27) [5]: 1.7 °C

Cc1cccc(-c2ccc(-c3cc4cnc(Nc5cc(C(F)(F)F)ccc5C)nc4n(CCCCN)c3=O)c(Cl)c2)n1 [compound 28, 8-(4-Aminobutyl)-6-(2-chloro-4-(6-methylpyridin-2-yl)phenyl)-2-((2-methyl-5-(trifluoromethyl)phenyl)amino)pyrido[2,3-d]pyrimidin-7(8H)-one]
ΔTm 28 [1]: 0.3 °C
ΔTm 28 [2]: -2.4 °C
ΔTm 28 [3]: 0.0 °C
ΔTm 28 [4]: 5.1 °C
ΔTm 28 [5]: 4.2 °C

Cc1cccc(-c2ccc(-c3cc4cnc(NCCCN5CCNCC5)nc4n(CCCCN)c3=O)c(Cl)c2)n1 [compound 29, 8-(4-Aminobutyl)-6-(2-chloro-4-(6-methylpyridin-2-yl)phenyl)-2-((3-(piperazin-1-yl)propyl)amino)pyrido[2,3-d]pyrimidin-7(8H)-one]
ΔTm 29 [1]: 0.7 °C
ΔTm 29 [2]: -1.3 °C
ΔTm 29 [3]: 0.0 °C
ΔTm 29 [4]: 4.3 °C
ΔTm 29 [5]: 4.1 °C

Cc1cccc(-c2ccc(-c3cc4cnc(Nc5ccc(CCCO)cc5)nc4n(CCCCN)c3=O)c(Cl)c2)n1 [compound 30, 8-(4-Aminobutyl)-6-(2-chloro-4-(6-methylpyridin-2-yl)phenyl)-2-((4-(3-hydroxypropyl)phenyl)amino)pyrido[2,3-d]pyrimidin-7(8H)-one]
ΔTm 30 [1]: 6.4 °C
ΔTm 30 [2]: -5.0 °C
ΔTm 30 [3]: -0.2 °C
ΔTm 30 [4]: 6.5 °C
ΔTm 30 [5]: 6.4 °C

Cc1cccc(-c2ccc(-c3cc4cnc(Nc5ccc(O)cc5)nc4n(CCCCN)c3=O)c(Cl)c2)n1 [compound 31, 8-(4-Aminobutyl)-6-(2-chloro-4-(6-methylpyridin-2-yl)phenyl)-2-((4-hydroxyphenyl)amino) pyrido[2,3-d]pyrimidin-7(8H)-one]
ΔTm 31 [1]: 6.5 °C
ΔTm 31 [2]: -2.0 °C
ΔTm 31 [3]: -0.5 °C
ΔTm 31 [4]: 6.6 °C
ΔTm 31 [5]: 5.1 °C

Cc1cccc(-c2ccc(-c3cc4cnc(Nc5ccc(C)c(O)c5)nc4n(CCCCN)c3=O)c(Cl)c2)n1 [compound 32, 8-(4-Aminobutyl)-6-(2-chloro-4-(6-methylpyridin-2-yl)phenyl)-2-((3-hydroxy-4-methylphenyl)amino)pyrido[2,3-d]pyrimidin-7(8H)-one]
ΔTm 32 [1]: 6.6 °C
ΔTm 32 [2]: -4.5 °C
ΔTm 32 [3]: 0.1 °C
ΔTm 32 [4]: 6.6 °C
ΔTm 32 [5]: 5.4 °C
